Calls of active or inactive are those of the source. How the calls were made is not given here.
Target: Caspase-6 (Homo sapiens) (UniProt P55212)
Test: inhibition of CASP6 peptide cleavage – biochemical, VEID-R110 fluorescence, cherry-pick, dose response (AID 720632)
Settings: caspase-6, VEID-R110 fluorogenic substrate

Caspase-6 (Homo sapiens), sequence (P55212 24-179 limits assumed): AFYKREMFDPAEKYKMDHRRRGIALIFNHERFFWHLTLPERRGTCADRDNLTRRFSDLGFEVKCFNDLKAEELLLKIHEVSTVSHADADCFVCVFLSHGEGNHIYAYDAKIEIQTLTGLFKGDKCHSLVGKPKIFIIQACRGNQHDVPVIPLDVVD
Caspase-6 (Homo sapiens), sequence (P55212 194-293 limits assumed): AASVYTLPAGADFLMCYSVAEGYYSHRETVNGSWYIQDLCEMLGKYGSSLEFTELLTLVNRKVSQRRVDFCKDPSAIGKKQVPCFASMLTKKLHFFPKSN

COC(=O)[C@H]1[C@H](CO)[C@H]2Cn3c(cccc3=O)[C@H]2N1CC1CCOCC1
activity change, negative = inhibition (at 26 µM (top of the series)): inactive

C=C1[C@H](C)CN[C@H]1CCO
activity change, negative = inhibition (at 26 µM (top of the series)): inactive

Cn1c(NN=O)nc2ccccc21
activity change, negative = inhibition (at 26 µM (top of the series)): inactive

O=C(Nc1ccc2c(c1)[C@H]1C[C@H](CC(=O)N3CCCCC3)O[C@@H](CO)[C@H]1O2)Nc1ccccc1F
activity change, negative = inhibition (at 26 µM (top of the series)): inactive

CCCc1cc(-c2n[nH]c(C(=O)OCC)c2-c2cscn2)c(O)cc1O
activity change, negative = inhibition (at 26 µM (top of the series)): inactive

Cc1ccc(NC(=O)c2ocnc2C)cc1Cl
activity change, negative = inhibition (at 26 µM (top of the series)): inactive

CN1N=C(C(C)(C)C)CSC1=Nc1ccccc1
activity change, negative = inhibition (at 26 µM (top of the series)): inactive

Oc1ccc(Br)cc1CNc1cccc2cccnc12
activity change, negative = inhibition (at 26 µM (top of the series)): inactive

CCCC(=O)Nc1ccc2c(c1)OC[C@@H](C)N(Cc1ccc(F)cc1)C[C@@H](C)[C@@H](OC)CN(C)C2=O
activity change, negative = inhibition (at 26 µM (top of the series)): inactive

O=C(NCCc1ccccc1)c1cccc2c(-c3ccc(F)c(F)c3)coc12
activity change, negative = inhibition (at 26 µM (top of the series)): inactive

Nc1cc(C(Cl)=C(Cl)Cl)c(S(N)(=O)=O)cc1S(N)(=O)=O
activity change, negative = inhibition (at 26 µM (top of the series)): inactive

CSCCC(NS(=O)(=O)c1ccccc1F)C(=O)NCC(C)(C)N1CCOCC1 (stereo not drawn)
activity change, negative = inhibition (at 26 µM (top of the series)): inactive

Cc1ccc(S(=O)(=O)N2CCC(C(=O)NCCCN3CCOCC3)CC2)cc1C
activity change, negative = inhibition (at 26 µM (top of the series)): inactive

C/C(CC(=O)Nc1cc(C)ccn1)=N\NC(=O)c1cccc(C)c1O
activity change, negative = inhibition (at 26 µM (top of the series)): inactive

COC(=O)c1ccc(CNC(=O)COC(=O)c2ccccc2-c2ccccc2)cc1
activity change, negative = inhibition (at 26 µM (top of the series)): inactive

COc1cccc(/C=N/Nc2nc(C)cc(=O)[nH]2)c1OC
activity change, negative = inhibition (at 26 µM (top of the series)): inactive

O=C(OCc1ccccc1)N1CCCC2CC1c1ccccc12 (stereo not drawn)
activity change, negative = inhibition (at 26 µM (top of the series)): inactive

O=C(Oc1cccc(-n2cnnn2)c1)c1ccccc1Cl
activity change, negative = inhibition (at 26 µM (top of the series)): inactive

COc1ccccc1C(=O)Nc1ccc2c(c1)OC[C@@H](C)N(CC1CC1)C[C@H](C)[C@@H](OC)CN(C)C2=O
activity change, negative = inhibition (at 26 µM (top of the series)): inactive

COc1ccc(C(=O)N2CCN(CCCc3ccccc3)CC2)cc1OC
activity change, negative = inhibition (at 26 µM (top of the series)): inactive

OC[C@H]1[C@H](c2ccc(-c3ccc(F)cc3)cc2)[C@@H]2CN(Cc3cccnc3)CCCCN12
activity change, negative = inhibition (at 26 µM (top of the series)): inactive

C[C@H](CO)N1C[C@H](C)[C@@H](CN(C)C(=O)c2ccncc2)OCc2cnnn2CCCC1=O
activity change, negative = inhibition (at 26 µM (top of the series)): inactive

COc1ccc(C=Nc2cccc3ncccc23)cc1
activity change, negative = inhibition (at 26 µM (top of the series)): inactive

COc1ccccc1S(=O)(=O)N[C@@H]1C=C[C@@H](CC(=O)N2CCOCC2)O[C@H]1CO
activity change, negative = inhibition (at 26 µM (top of the series)): inactive

Nc1cccnc1Oc1ccc(F)cc1F
activity change, negative = inhibition (at 26 µM (top of the series)): inactive

CNC(=O)c1ccccc1NC(=O)C1CC(=O)N(C(C)C)C1 (stereo not drawn)
activity change, negative = inhibition (at 26 µM (top of the series)): inactive

CCC(=O)Nc1ccc2c(c1)OC[C@H](C)N(C(=O)C1CC1)C[C@H](C)[C@@H](OC)CN(C)C2=O
activity change, negative = inhibition (at 26 µM (top of the series)): inactive

O=C(NNS(=O)(=O)c1ccc(F)cc1)c1ccccc1F
activity change, negative = inhibition (at 26 µM (top of the series)): inactive

NNC(=O)CC1=NNC(=O)C1
activity change, negative = inhibition (at 26 µM (top of the series)): inactive

CCC(NS(=O)(=O)c1ccc(C)cc1)C(=O)N1CCOCCOCCOCC1 (stereo not drawn)
activity change, negative = inhibition (at 26 µM (top of the series)): inactive

CC1(Oc2cnc(Cl)c3ccccc23)CCN(Cc2ccc(OC(F)(F)F)cc2)C1 (stereo not drawn)
activity change, negative = inhibition (at 26 µM (top of the series)): inactive

CCOc1ncccc1C(=O)OC(C)C(=O)Nc1ccc(N2CCOCC2)cc1 (stereo not drawn)
activity change, negative = inhibition (at 26 µM (top of the series)): inactive

CN(C)c1ccc2c(c1)[C@@H]1C[C@@H](CC(=O)NCc3ccccn3)O[C@@H](CO)[C@@H]1O2
activity change, negative = inhibition (at 26 µM (top of the series)): inactive

CCCN1C[C@H](C)[C@H](OC)CN(C)C(=O)c2ccc(NC(=O)c3ccccc3)cc2OC[C@H]1C
activity change, negative = inhibition (at 26 µM (top of the series)): inactive

COc1cc(CN2CCc3ccccc3C2)cc([N+](=O)[O-])c1O
activity change, negative = inhibition (at 26 µM (top of the series)): inactive

COc1ccc(N2C(=O)Cc3ccccc3C2=O)cc1
activity change, negative = inhibition (at 26 µM (top of the series)): inactive

COc1cc(-c2nnc(COC(=O)c3ccc([N+](=O)[O-])o3)o2)cc(OC)c1OC
activity change, negative = inhibition (at 26 µM (top of the series)): inactive

CC(=O)Nc1ccc(C=NNc2ccc([N+](=O)[O-])cc2S(=O)(=O)Nc2ccccc2C(=O)O)cc1
activity change, negative = inhibition (at 26 µM (top of the series)): inactive

CCc1ccccc1OCC(=O)OCC(=O)N1CC(=O)Nc2ccccc21
activity change, negative = inhibition (at 26 µM (top of the series)): inactive

S=c1[nH]c2cc(Cl)c3cccnc3c2o1
activity change, negative = inhibition (at 26 µM (top of the series)): inactive

CSc1ccccc1OCc1cc(C(=O)N2CCc3c(Cl)cccc3C2)no1
activity change, negative = inhibition (at 26 µM (top of the series)): inactive

O=[N+]([O-])c1ccc(NCCN2CCOCC2)c([N+](=O)[O-])c1
activity change, negative = inhibition (at 26 µM (top of the series)): inactive

Cc1cc2c(NC(=O)Nc3ccc(C(F)(F)F)cc3)cccc2nn1
activity change, negative = inhibition (at 26 µM (top of the series)): inactive

COc1cccc(CN2CCc3[nH]c(=S)[nH]c(=O)c3C2)c1
activity change, negative = inhibition (at 26 µM (top of the series)): inactive

COc1ccccc1C(=O)Nc1ccc2c(c1)OC[C@H](C)N(CC1CC1)C[C@@H](C)[C@H](OC)CN(C)C2=O
activity change, negative = inhibition (at 26 µM (top of the series)): inactive

O=C(NCC(c1ccco1)N1CCc2ccccc21)c1cccc([N+](=O)[O-])c1 (stereo not drawn)
activity change, negative = inhibition (at 26 µM (top of the series)): inactive

COc1ccc(N2CCN(C(=O)CCCCCn3c(=S)[nH]c4cc5c(cc4c3=O)OCO5)CC2)cc1
activity change, negative = inhibition (at 26 µM (top of the series)): inactive

Cc1ccccc1CN(C)C(=O)COC(=O)CSc1ccc([N+](=O)[O-])cc1
activity change, negative = inhibition (at 26 µM (top of the series)): inactive

COc1ccc(S(=O)(=O)N2CCOCC2)cc1C(=O)NCC(c1ccccc1)c1ccccc1
activity change, negative = inhibition (at 26 µM (top of the series)): inactive

O=C(COC(=O)c1ccc([N+](=O)[O-])o1)Nc1ccc2c(c1)OC(F)(F)O2
activity change, negative = inhibition (at 26 µM (top of the series)): inactive

CC(C)CNC(=O)c1cccc2c(-c3ccc(F)c(F)c3)coc12
activity change, negative = inhibition (at 26 µM (top of the series)): inactive

O=C(C[C@@H]1C=C[C@@H](NC(=O)c2ccc(F)cc2)[C@@H](CO)O1)NCc1ccncn1
activity change, negative = inhibition (at 26 µM (top of the series)): inactive

COc1cccc(C(=O)N2CCN(Cc3ccc(OC)cc3OC)CC2)c1
activity change, negative = inhibition (at 26 µM (top of the series)): inactive

CCN=c1sc(C(=O)Nc2ccccc2)c(C)n1CC
activity change, negative = inhibition (at 26 µM (top of the series)): inactive

Cc1cccc(-n2c(C)nc3cc(C(=O)NCCN4CCOCC4)ccc32)c1
activity change, negative = inhibition (at 26 µM (top of the series)): inactive

CC(=O)N1CCc2c(sc(NC(=O)C3CCCCC3)c2C(N)=O)C1
activity change, negative = inhibition (at 26 µM (top of the series)): inactive

CCOC(=O)C1CCCN(S(=O)(=O)c2nc3nc(C)cc(C)n3n2)C1 (stereo not drawn)
activity change, negative = inhibition (at 26 µM (top of the series)): inactive

COc1ccc(C(=O)Nc2cc(C(=O)O)cc(C(=O)O)c2)cc1Cl
activity change, negative = inhibition (at 26 µM (top of the series)): inactive

CC(C)NC(=O)N1[C@H](CO)[C@@H](c2ccccc2)C12CN(C(=O)Cc1cccnc1)C2
activity change, negative = inhibition (at 26 µM (top of the series)): inactive

CN(c1ccccc1)S(=O)(=O)c1cccc(C(=O)OCC(=O)Nc2ccc(C(N)=O)cc2)c1
activity change, negative = inhibition (at 26 µM (top of the series)): inactive

Cc1ccn2c(=S)[nH]nc2c1
activity change, negative = inhibition (at 26 µM (top of the series)): inactive

O=C(CCCn1c(=S)[nH]c2cc3c(cc2c1=O)OCO3)N1CCN(c2ccc(F)cc2)CC1
activity change, negative = inhibition (at 26 µM (top of the series)): inactive

O=C(CN1C(=O)NC2(CCc3ccccc32)C1=O)Nc1c(Cl)cccc1Cl (stereo not drawn)
activity change, negative = inhibition (at 26 µM (top of the series)): inactive

NN1C(=O)/C(=C2/Sc3ccccc3N2CCCS(=O)(=O)O)SC1=S
activity change, negative = inhibition (at 26 µM (top of the series)): inactive

COc1ccccc1NC(=O)C(C)OC(=O)CCC1CCCCC1 (stereo not drawn)
activity change, negative = inhibition (at 26 µM (top of the series)): inactive

COc1ccccc1CNC(=O)COC(=O)c1ccc([N+](=O)[O-])o1
activity change, negative = inhibition (at 26 µM (top of the series)): inactive

Cc1ccccc1C(=O)O/N=C(\N)c1ccccc1
activity change, negative = inhibition (at 26 µM (top of the series)): inactive

O=C(COC(=O)c1ccc([N+](=O)[O-])o1)Nc1ccc(F)cc1
activity change, negative = inhibition (at 26 µM (top of the series)): inactive

Cc1cc(C)nc(N2CCN(S(=O)(=O)c3ccc(F)cc3)CC2)n1
activity change, negative = inhibition (at 26 µM (top of the series)): inactive

CCCN1C[C@H](C)[C@@H](OC)CN(C)C(=O)c2ccc(NC(=O)c3ccccc3)cc2OC[C@H]1C
activity change, negative = inhibition (at 26 µM (top of the series)): inactive

CCC1=NN(C(=O)c2ccc(Cl)cc2)C(O)(c2ccc(C)cc2)C1 (stereo not drawn)
activity change, negative = inhibition (at 26 µM (top of the series)): inactive

N/C(Cc1cccc2ccccc12)=N\OC(=O)c1ccccc1F
activity change, negative = inhibition (at 26 µM (top of the series)): inactive

COc1ccccc1C#Cc1ccc2c(c1)O[C@@H](CN(C)C)[C@@H](C)CN([C@@H](C)CO)S2(=O)=O
activity change, negative = inhibition (at 26 µM (top of the series)): inactive

Cc1c(Cl)cccc1NC(=O)Nc1cc(C(C)(C)C)on1
activity change, negative = inhibition (at 26 µM (top of the series)): inactive

O=C(OCC(=O)N1CCN(c2ccccc2)CC1)c1ccc([N+](=O)[O-])s1
activity change, negative = inhibition (at 26 µM (top of the series)): inactive

O=C(NC1CC2CCC(C1)N2Cc1ccccc1)c1ccccc1Br (stereo not drawn)
activity change, negative = inhibition (at 26 µM (top of the series)): inactive

O=C(NC[C@@H]1CC[C@@H]2[C@@H](CN2S(=O)(=O)c2ccccc2[N+](=O)[O-])O1)C1CCOCC1
activity change, negative = inhibition (at 8 µM (top of the series)): inactive

CN1CCN(c2ccc(CNC(=O)C3Cc4c(-c5ccc6c(c5)OCO6)ccnc4O3)cc2)CC1 (stereo not drawn)
activity change, negative = inhibition (at 26 µM (top of the series)): inactive

C[C@H]1CN([C@@H](C)CO)C(=O)CCCn2cc(nn2)CO[C@@H]1CN(C)C(=O)CCC(F)(F)F
activity change, negative = inhibition (at 26 µM (top of the series)): inactive

C=CCNC(=O)COc1ccccc1C#N
activity change, negative = inhibition (at 26 µM (top of the series)): inactive

O=C(O)C1Sc2[nH]c(=O)sc2C2c3ccc(O)cc3OC(=O)C12 (stereo not drawn)
activity change, negative = inhibition (at 26 µM (top of the series)): inactive

COc1cc(N)c(Cl)cc1C(=O)NC1CCN(Cc2ccccc2)CC1
activity change, negative = inhibition (at 26 µM (top of the series)): inactive

O=C(Nc1nc2ccc([N+](=O)[O-])cc2s1)c1ccncc1
activity change, negative = inhibition (at 26 µM (top of the series)): inactive

COc1cc(NC(=O)c2cccnc2)c(Cl)cc1NC(=O)c1ccccc1
activity change, negative = inhibition (at 26 µM (top of the series)): inactive

COc1ccc(S(=O)(=O)n2cnc3ccccc32)cc1OC
activity change, negative = inhibition (at 26 µM (top of the series)): inactive

O=S(=O)(c1cccc2cccnc12)N1CCN(c2ccc(F)cc2)CC1
activity change, negative = inhibition (at 26 µM (top of the series)): inactive

COc1ccccc1C(=O)Nc1ccc2c(c1)OC[C@@H](C)N(CC1CC1)C[C@H](C)[C@H](OC)CN(C)C2=O
activity change, negative = inhibition (at 26 µM (top of the series)): inactive

Oc1ccc(/C=N/n2c(-c3ccccc3)n[nH]c2=S)cc1Br
activity change, negative = inhibition (at 26 µM (top of the series)): inactive
